# How the values were obtained:
# [1] = test system: rape; experiment: Test B pre/postemergence rape; type: in vivo, Brassica napus
# In short: (§1)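 Herbicidal effect was estimated by eye on a ten-point control scale after plants spent twelve to sixteen days in a greenhouse following soil or foliar treatment. Foliar sprays targeted plants at one to four leaves; all doses were formulated in a non-phytotoxic solvent with surfactant.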
# [2] = test system: giant foxtail; experiment: Test B pre/postemergence giant foxtail; type: in vivo, Setaria faberii
# In short: as §1
# [3] = test system: blackgrass; experiment: Test B pre/postemergence blackgrass; type: in vivo, Alopecurus myosuroides
# In short: as §1
# [4] = test system: crabgrass; experiment: Test B pre/postemergence crabgrass; type: in vivo, Digitaria sanguinalis
# In short: as §1
# [5] = test system: wild oat; experiment: Test B pre/postemergence wild oat; type: in vivo, Avena fatua
# In short: as §1
# [6] = test system: bedstraw; experiment: Test B pre/postemergence bedstraw; type: in vivo, Galium aparine
# In short: as §1
# [7] = test system: cocklebur; experiment: Test B pre/postemergence cocklebur; type: in vivo, Xanthium strumarium
# In short: as §1
# [8] = test system: morningglory; experiment: Test B pre/postemergence morningglory; type: in vivo, Ipomoea hederacea
# In short: as §1
# [9] = test system: corn; experiment: Test B pre/postemergence corn; type: in vivo, Zea mays
# In short: as §1
# [10] = test system: pigweed; experiment: Test B pre/postemergence pigweed; type: in vivo, Amaranthus retroflexus
# In short: as §1
# [11] = test system: velvetleaf; experiment: Test B pre/postemergence velvetleaf; type: in vivo, Abutilon theophrasti
# In short: as §1
# [12] = test system: soybean; experiment: Test B pre/postemergence soybean; type: in vivo, Glycine max
# In short: as §1
# [13] = test system: surinam grass; experiment: Test B pre/postemergence surinam grass; type: in vivo, Brachiaria decumbens
# In short: as §1
# [14] = test system: purple nutsedge; experiment: Test B pre/postemergence purple nutsedge; type: in vivo, Cyperus rotundus
# In short: as §1
# [15] = test system: sugar beet; experiment: Test B pre/postemergence sugar beet; type: in vivo, Beta vulgaris
# In short: as §1
# [16] = test system: wheat; experiment: Test B pre/postemergence wheat; type: in vivo, Triticum aestivum
# In short: as §1
# [17] = Postemergence, Rate 62 g/ha, scale of 0 to 10, 0 is no effect, 10 is complete control
# [18] = Postemergence, Rate 125 g/ha, scale 0 to 10, 0 is no effect, 10 is complete control
# [19] = Postemergence, Rate 500 g/ha, scale of 0 to 10 where 0 is no effect and 10 is complete control
# [20] = Preemergence, Rate 62 g/ha, scale 0 to 10 (0 no effect, 10 complete control)
# [21] = Preemergence, Rate 125 g/ha, scale 0 to 10, 0 is no effect, 10 is complete control
# [22] = Preemergence, Rate 500 g/ha, scale of 0 to 10 where 0 is no effect and 10 is complete control
# [23] = Rate 250 g/ha, Postemergence, scale of 0 to 10 where 0 is no effect and 10 is complete control
compound,measurement,setting,value
CC(=O)OCCCCn1c(=O)on(C(=O)N(c2ccccc2)C(C)C)c1=O [Compound 565],Rape plant response rating,[1]; [17],0
same,Rape plant response rating,[1]; [18],0
same,"Plant response rating, Rape",[1]; [19],0
same,Rape plant response rating,[1]; [20],0
same,Rape plant response rating,[1]; [21],0
same,Rape plant response rating (0 to 10 scale),"[1]; Preemergence, Rate 250 g/ha",0
same,Rape plant response rating,[1]; [22],0
same,"Plant response rating, Rape",[1]; [23],0
same,Giant foxtail plant response rating,[2]; [17],0
same,Giant foxtail plant response rating,[2]; [18],0
same,"Plant response rating, Giant foxtail",[2]; [19],3
same,Giant foxtail plant response rating,[2]; [20],0
same,Giant foxtail plant response rating,[2]; [21],0
same,Giant foxtail plant response rating (0 to 10 scale),"[2]; Preemergence, Rate 250 g/ha",0
same,Giant foxtail plant response rating,[2]; [22],2
same,"Plant response rating, Giant foxtail",[2]; [23],0
same,Blackgrass plant response rating,[3]; [17],0
same,Blackgrass plant response rating,[3]; [18],0
same,"Plant response rating, Blackgrass",[3]; [19],0
same,Blackgrass plant response rating,[3]; [20],0
same,Blackgrass plant response rating,[3]; [21],0
same,Blackgrass plant response rating (0 to 10 scale),"[3]; Preemergence, Rate 250 g/ha",0
same,Blackgrass plant response rating,[3]; [22],0
same,"Plant response rating, Blackgrass",[3]; [23],0
same,Crabgrass plant response rating,[4]; [17],0
same,Crabgrass plant response rating,[4]; [18],0
same,"Plant response rating, Crabgrass",[4]; [19],3
same,Crabgrass plant response rating,[4]; [20],0
same,Crabgrass plant response rating,[4]; [21],0
same,Crabgrass plant response rating (0 to 10 scale),"[4]; Preemergence, Rate 250 g/ha",0
same,Crabgrass plant response rating,[4]; [22],2
same,"Plant response rating, Crabgrass",[4]; [23],0
same,Wild oats plant response rating,[5]; [17],0
same,"Plant response rating, Wild oats",[5]; [19],0
same,Wild oats plant response rating,[5]; [20],0
same,Wild oats plant response rating,[5]; [21],0
same,Wild oats plant response rating (0 to 10 scale),"[5]; Preemergence, Rate 250 g/ha",0
same,Wild oats plant response rating,[5]; [22],0
same,"Plant response rating, Wild oats",[5]; [23],0
same,Bedstraw plant response rating,[6]; [17],0
same,Bedstraw plant response rating,[6]; [18],0
same,"Plant response rating, Bedstraw",[6]; [19],0
same,Bedstraw plant response rating,[6]; [20],0
same,Bedstraw plant response rating,[6]; [21],0
same,Bedstraw plant response rating (0 to 10 scale),"[6]; Preemergence, Rate 250 g/ha",0
same,Bedstraw plant response rating,[6]; [22],0
same,Cocklebur plant response rating,[7]; [17],0
same,Cocklebur plant response rating,[7]; [18],0
same,"Plant response rating, Cocklebur",[7]; [19],2
same,Cocklebur plant response rating,[7]; [20],0
same,Cocklebur plant response rating,[7]; [21],0
same,Cocklebur plant response rating (0 to 10 scale),"[7]; Preemergence, Rate 250 g/ha",0
same,Cocklebur plant response rating,[7]; [22],0
same,"Plant response rating, Cocklebur",[7]; [23],2
same,Morningglory plant response rating,[8]; [17],3
same,Morningglory plant response rating,[8]; [18],5
same,"Plant response rating, Morningglory",[8]; [19],9
same,Morningglory plant response rating,[8]; [20],0
same,Morningglory plant response rating,[8]; [21],0
same,Morningglory plant response rating (0 to 10 scale),"[8]; Preemergence, Rate 250 g/ha",0
same,Morningglory plant response rating,[8]; [22],0
same,"Plant response rating, Morningglory",[8]; [23],7
same,Corn plant response rating,[9]; [17],0
same,Corn plant response rating,[9]; [18],0
same,"Plant response rating, Corn",[9]; [19],0
same,Corn plant response rating,[9]; [20],0
same,Corn plant response rating,[9]; [21],0
same,Corn plant response rating (0 to 10 scale),"[9]; Preemergence, Rate 250 g/ha",0
same,Corn plant response rating,[9]; [22],0
same,"Plant response rating, Corn",[9]; [23],0
same,Redroot pigweed plant response rating,[10]; [17],0
same,"Plant response rating, Redroot pigweed",[10]; [19],6
same,Redroot pigweed plant response rating,[10]; [20],0
same,Redroot pigweed plant response rating,[10]; [21],0
same,Redroot pigweed plant response rating (0 to 10 scale),"[10]; Preemergence, Rate 250 g/ha",0
same,Redroot pigweed plant response rating,[10]; [22],9
same,"Plant response rating, Redroot pigweed",[10]; [23],6
same,Velvetleaf plant response rating,[11]; [17],3
same,"Plant response rating, Velvetleaf",[11]; [19],4
same,Velvetleaf plant response rating,[11]; [20],0
same,Velvetleaf plant response rating,[11]; [21],0
same,Velvetleaf plant response rating (0 to 10 scale),"[11]; Preemergence, Rate 250 g/ha",0
same,Velvetleaf plant response rating,[11]; [22],0
same,"Plant response rating, Velvetleaf",[11]; [23],4
same,Soybean plant response rating,[12]; [17],2
same,"Plant response rating, Soybean",[12]; [19],3
same,Soybean plant response rating,[12]; [20],0
same,Soybean plant response rating,[12]; [21],0
same,Soybean plant response rating (0 to 10 scale),"[12]; Preemergence, Rate 250 g/ha",0
same,Soybean plant response rating,[12]; [22],0
same,"Plant response rating, Soybean",[12]; [23],3
same,B. signalgrass plant response rating,[13]; [17],0
same,B. signalgrass plant response rating,[13]; [18],0
same,"Plant response rating, B. signalgrass",[13]; [19],0
same,B. signalgrass plant response rating,[13]; [20],0
same,B. signalgrass plant response rating,[13]; [21],0
same,"B. signalgrass plant response rating (0 to 10 scale, 0 is no effect, 10 is complete control)","[13]; Preemergence, Rate 250 g/ha",0
same,B. signalgrass plant response rating,[13]; [22],0
same,"Plant response rating, B. signalgrass",[13]; [23],0
same,Nutsedge plant response rating,[14]; [18],0
same,"Plant response rating, Nutsedge",[14]; [19],0
same,Nutsedge plant response rating,[14]; [20],0
same,Nutsedge plant response rating,[14]; [21],0
same,Nutsedge plant response rating (0 to 10 scale),"[14]; Preemergence, Rate 250 g/ha",0
same,Nutsedge plant response rating,[14]; [22],0
same,"Plant response rating, Nutsedge",[14]; [23],0
same,Sugarbeets plant response rating,[15]; [17],0
same,"Plant response rating, Sugarbeets",[15]; [19],0
same,Sugarbeets plant response rating,[15]; [20],0
same,Sugarbeets plant response rating,[15]; [21],0
same,Sugarbeets plant response rating (0 to 10 scale),"[15]; Preemergence, Rate 250 g/ha",0
same,Sugarbeets plant response rating,[15]; [22],0
same,"Plant response rating, Sugarbeets",[15]; [23],0
same,Wheat plant response rating,[16]; [17],0
same,"Plant response rating, Wheat",[16]; [19],0
same,Wheat plant response rating,[16]; [20],0
same,Wheat plant response rating,[16]; [21],0
same,Wheat plant response rating (0 to 10 scale),"[16]; Preemergence, Rate 250 g/ha",0
same,Wheat plant response rating,[16]; [22],0
same,"Plant response rating, Wheat",[16]; [23],0

# — US6737383B1, “Herbicidal oxadiazolidines” (priority 1999, dated 2004)
